For one assay, the target named is DGKalpha (Homo sapiens, UniProt P23743). Put plainly: In vitro DGK inhibition assay (ADP-Glo, liposomes), DGKalpha. In kind it is biochemical. Set-up: hDGKalpha(1-735)-N-His; His (N); made in house; host or cells: Sf21 insect cells (baculovirus). The note with it: 4 nM DGK α, 25 μM ATP, 125 uM DLG in liposomes, 1 hour reaction. As to the method: (§1) DGK α and ζ kinases use ATP to phosphorylate the substrate 1,2-dilauroyl-sn-glycerol (DLG, incorporated in the liposomes). ATP is converted to ADP as a result of this enzymatic reaction. After the kinase reaction, an ATP-depletion reagent is added to terminate the kinase reaction and deplete any remaining ATP, leaving only ADP. Second, a detection reagent is added to simultaneously convert ADP to ATP and allow the newly synthesized ATP to be converted to light using a coupled luciferase/luciferin reaction.
Sequence of DGKalpha (P23743 whole entry): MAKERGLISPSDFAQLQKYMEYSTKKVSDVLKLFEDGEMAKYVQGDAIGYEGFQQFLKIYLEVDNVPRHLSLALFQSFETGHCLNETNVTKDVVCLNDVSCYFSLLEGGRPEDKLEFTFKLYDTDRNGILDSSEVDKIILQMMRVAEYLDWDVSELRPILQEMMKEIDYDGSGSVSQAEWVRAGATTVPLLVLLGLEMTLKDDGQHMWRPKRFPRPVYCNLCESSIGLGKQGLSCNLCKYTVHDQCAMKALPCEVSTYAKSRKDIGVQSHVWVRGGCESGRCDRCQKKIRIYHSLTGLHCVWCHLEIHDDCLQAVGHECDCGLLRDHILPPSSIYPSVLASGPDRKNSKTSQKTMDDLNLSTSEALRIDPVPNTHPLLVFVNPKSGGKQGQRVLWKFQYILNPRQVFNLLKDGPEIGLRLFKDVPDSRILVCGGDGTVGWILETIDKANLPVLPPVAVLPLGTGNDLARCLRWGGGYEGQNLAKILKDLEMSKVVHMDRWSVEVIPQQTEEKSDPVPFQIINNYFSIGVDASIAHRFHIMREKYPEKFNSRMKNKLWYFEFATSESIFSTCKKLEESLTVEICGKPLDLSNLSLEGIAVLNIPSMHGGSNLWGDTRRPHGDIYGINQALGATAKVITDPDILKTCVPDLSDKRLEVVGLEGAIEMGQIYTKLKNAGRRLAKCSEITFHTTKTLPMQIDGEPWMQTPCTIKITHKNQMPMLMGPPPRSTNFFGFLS
Full length DGKA and Z were expressed in Sf21 insect cells by infecting the cells with the baculovirus stock at MOI of 2. Purification of both enzymes was performed as previously described by Takahashi et al., PeerJ, 2018 (Takahashi, D.; Sakane, F. Expression and purification of human diacylglycerol kinase alpha from baculovirus-infected insect cells for structural studies. PeerJ 2018, 6, No. e5449).
(§2) A concentrated liposome solution was prepared in assay buffer without DTT and BSA: 2 mM of DLG in 21 mM of total liposome (2 mM DLG/8 mM PS/11 mM PC). The reaction mixtures contain the assay buffer with a final DLG concentration of 125 uM ATP concentrations of 25 μM (for DGKA assay) or 50 μM (for DGKZ assay). The reactions were started by addition of DGK a and (kinases at 4 nM and 2 nM final concentrations, respectively. After 1 hour reaction, the amount of ADP formed was detected with the ADP-Glo kinase assay (Promega) according to the manufacturer instructions. Compounds were added in 11-points dose response, starting at […], 1:3 dilutions, with a final DMSO concentration of 2%. The multidrop combi was used as a liquid handler and luminescence was read with 0.5 s by the envision reader (PE).
(In ADP-Glo the light output rises with the ADP produced.)

In another assay the test system is primary human T-cells. The assay is described as follows: T-cell proliferation assay (CellTiter-Glo). In kind it is cell-based. The settings on record: Homo sapiens, T-cell, 120 h, CD3 condition; for Emax: 5 days, 20 μM reference compound A1 = 100%, read-out: Emax proliferation (% activation); for EC50: proliferation after 5 days, CellTiter-Glo, read-out: Tcell Proliferation CD3 EC50. As to the method:
Expanded primary human T-cells are thawed and cultured in RPMI 1640 (Gibco, #61870-010)+5% human serum (HS, Sigma, #H3667)+1 mM Sodium Pyruvate (Gibco, #11360-039)+50 μM 2-mercaptoethanol (Gibco, #31350-010) and 1× Pen-Strep (Life Technologies, #15140122) medium at density of 2 Mio/ml for 3 hours in 5% CO2, 37° C. and 95% humidity. For coating of plates, PBS++ only or PBS++ with CD3 antibody (concentration depending on donor and determined by CD3 titrations) is added 100 μl/well to Poly-D Lysine coated 96-well plates. Plates are sealed and incubated at room temperature for 3 hours on a table-top rocking platform. After incubation, plates are washed once with PBS−− and filled with 40 μl/well culture medium only. Compounds are then added (see next section) to medium only plates. After 3 hours of culturing the T-cells, cells are filtered through a cell strainer (Miltenyi Biotech, #130-041-407), counted again and concentration is adjusted to 1.25 Mio/ml.
Cells are then seeded 80 μl/well to the 40 µl/well including dispensed compounds according to plate layout. By adding cells, compounds are further diluted 1:3, and resulting in 100k cells/120 µl/well. After 48 hours 40 μl of supernatant is collected carefully from the top while not disturbing the cells. Cells are assessed for proliferation 5 days later by measuring […] using CellTiterGlo (Promega).
Compounds were added in a 5 or 6 pt dose response with the Tecan D300e Digital Dispenser, all conditions 3 times more concentrated than the end-concentration, since cells are added afterwards (80p1 cells to 40p1 prepared medium with treatment). The DR was starting at 20 μM or 10 μM final top concentration and a dilution factor of 3.333. The positive control was the reference compound A1 that was added in a dose response as well, additionally to 3 wells of only 20 μM representing the positive stimulator control. All wells were normalized with DMSO to a final concentration of 0.6% (0.2% end-concentration).
After 5 days, for detection of ATP which is directly proportional to the number of cells present per well, the CellTiter-Glo® 2.0 Reagent is used. After visual control for toxicity or precipitations of the tested compounds, the plates are equilibrated to room temperature for 45 minutes. CellTiter-Glo® 2.0 Reagent is equilibrated to room temperature as well. After equilibration, an equal amount of CellTiter-Glo reagent is added to the cells (80 µl/well) with an electronic multichannel pipette. Plates are placed on a rocking platform for 15 minutes at room temperature. After incubation, the bottom of the plates is sealed with backing tape. Luminescence is measured with PHERAstar FSX (interval time 0.5 sec, gain 3000, focal height 15 mm) and exported as CSV file for analysis in Genedata screener.
Calculations and Data Reporting CD3 and PBS plates were analysed separately in Genedata Screener using Roche Normalization PCT_POS_CTRL with DMSO set as Neutral Control and 20 μM of the reference compound A1 set as Stimulator Control/100%.
For CD3 conditions EC50 and Emax of the fitted sigmoidal curve were reported. If no curve could be fitted, the EC50 was reported as blank field and the Emax was based on individual data points. […] Compounds which activate unstimulated cells (see IL2 measurements) or compounds which negatively affected viability were flagged.
For orientation: ATP-based viability assays read luminescence as a measure of living cells.

A further assay deals with DGKzeta (Homo sapiens, UniProt Q13574). The assay is described as follows: In vitro DGK inhibition assay (ADP-Glo, liposomes), DGKzeta. The settings on record: 2 nM DGK ζ, 50 μM ATP, 125 uM DLG in liposomes, 1 hour reaction. Set-up: hDGKzeta(1-928)-N-His; His (N); made in house; host or cells: Sf21 insect cells (baculovirus). In kind it is biochemical. As to the method:
as §1
Purification of both enzymes was performed as previously described by Takahashi et al., PeerJ, 2018 (Takahashi, D.; Sakane, F. Expression and purification of human diacylglycerol kinase alpha from baculovirus-infected insect cells for structural studies. PeerJ 2018, 6, No. e5449).
as §2

The term IC50 denotes the concentration that inhibits the measured activity by half. A high value points to weaker potency in that assay.

The structures appear in SMILES notation.

Sequence of DGKzeta (Q13574 whole entry): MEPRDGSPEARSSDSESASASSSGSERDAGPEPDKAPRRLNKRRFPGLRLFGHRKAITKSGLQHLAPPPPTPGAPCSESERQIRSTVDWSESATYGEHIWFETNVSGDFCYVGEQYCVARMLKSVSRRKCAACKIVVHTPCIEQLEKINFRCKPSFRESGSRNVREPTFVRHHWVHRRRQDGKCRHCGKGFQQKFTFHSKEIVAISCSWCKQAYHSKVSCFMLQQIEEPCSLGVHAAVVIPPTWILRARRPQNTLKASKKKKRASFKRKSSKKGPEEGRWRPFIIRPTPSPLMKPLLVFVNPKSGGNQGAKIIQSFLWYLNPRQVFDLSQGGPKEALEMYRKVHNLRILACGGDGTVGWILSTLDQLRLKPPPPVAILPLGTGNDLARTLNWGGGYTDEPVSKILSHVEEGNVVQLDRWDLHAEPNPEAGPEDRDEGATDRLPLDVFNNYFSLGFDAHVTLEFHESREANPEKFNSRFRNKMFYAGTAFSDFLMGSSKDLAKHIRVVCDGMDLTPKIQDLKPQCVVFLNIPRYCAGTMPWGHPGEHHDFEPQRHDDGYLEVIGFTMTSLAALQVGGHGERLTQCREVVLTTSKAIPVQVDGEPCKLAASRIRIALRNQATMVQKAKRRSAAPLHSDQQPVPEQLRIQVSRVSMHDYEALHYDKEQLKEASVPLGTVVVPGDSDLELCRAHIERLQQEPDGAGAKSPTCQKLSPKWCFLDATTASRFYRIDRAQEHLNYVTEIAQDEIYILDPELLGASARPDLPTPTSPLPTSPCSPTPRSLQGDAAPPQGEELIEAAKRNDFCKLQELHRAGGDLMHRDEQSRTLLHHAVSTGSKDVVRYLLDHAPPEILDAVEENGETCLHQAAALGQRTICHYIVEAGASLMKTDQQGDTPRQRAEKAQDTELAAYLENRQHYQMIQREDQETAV

Consider `CC(C)(c1nnc(-c2ccc3c(c2)N(Cc2ccc(OCc4ccccc4F)cc2)C(=O)[C@@H](N)CS3(=O)=O)o1)S(C)(=O)=O` [Example 14, (3R)-3-amino-5-[[4-[(2-fluorophenyl)methoxy]phenyl]methyl]-7-[5-(1-methyl-1-methylsulfonyl-ethyl)-1,3,4-oxadiazol-2-yl]-1,1-dioxo-2,3-dihydro-1λ6,5-benzothiazepin-4-one], for which 2.02 µM corresponded to half-maximal inhibition against DGKalpha (IC50). In the assay on primary human T-cells, the Emax turned out to be 113% and the EC50 stood at 1.22 µM. The compound further showed an IC50 against DGKzeta of 1.11 µM.

Regarding `CN(Cc1ccccc1)c1ccc(CN2C(=O)[C@@H](N)CS(=O)(=O)c3ccc(-c4nnc(C(C)(C)S(C)(=O)=O)o4)cc32)cc1` [Example 15, (3R)-3-amino-5-[[4-[benzyl(methyl)amino]phenyl]methyl]-7-[5-(1-methyl-1-methylsulfonyl-ethyl)-1,3,4-oxadiazol-2-yl]-1,1-dioxo-2,3-dihydro-1λ6,5-benzothiazepin-4-one], the figures for the IC50 at DGKalpha and at DGKzeta were 0.274 µM and 8.03 µM, respectively. In the assay on primary human T-cells, the Emax came to 85%. Further, the EC50 with primary human T-cells is 2.67 µM.

`CC(C)(c1nnc(-c2ccc3c(c2)N(Cc2ccc(OC4CCCC4)cc2)C(=O)[C@@H](N)CS3(=O)=O)o1)S(C)(=O)=O` [Example 16, (3R)-3-amino-5-[[4-(cyclopentoxy)phenyl]methyl]-7-[5-(1-methyl-1-methylsulfonyl-ethyl)-1,3,4-oxadiazol-2-yl]-1,1-dioxo-2,3-dihydro-1λ6,5-benzothiazepin-4-one] yielded an IC50 against DGKalpha of 1.51 µM. In addition, in the assay on primary human T-cells, the Emax came to 81% and the EC50 came out at 5.36 µM. Moreover, it took 0.82 µM to reach half-maximal inhibition against DGKzeta (IC50).

`CC(C)(c1nnc(-c2ccc3c(c2)N(Cc2ccc(-c4noc(C(F)(F)F)n4)cc2)C(=O)[C@@H](N)CS3(=O)=O)o1)S(C)(=O)=O` [Example 17, (3R)-3-amino-7-[5-(1-methyl-1-methylsulfonyl-ethyl)-1,3,4-oxadiazol-2-yl]-1,1-dioxo-5-[[4-[5-(trifluoromethyl)-1,2,4-oxadiazol-3-yl]phenyl]methyl]-2,3-dihydro-1λ6,5-benzothiazepin-4-one] showed an IC50 on DGKalpha of 3.35 µM. In the assay on primary human T-cells, the Emax is 112% and the EC50 was 1.46 µM. Besides, half-maximal inhibition at DGKzeta (IC50) required 3.11 µM.

`CCC(CC)Oc1ccc(CN2C(=O)[C@@H](N)CS(=O)(=O)c3ccc(-c4nnc(C(C)(C)S(C)(=O)=O)o4)cc32)cc1` [Example 19, (3R)-3-amino-5-[[4-(1-ethylpropoxy)phenyl]methyl]-7-[5-(1-methyl-1-methylsulfonyl-ethyl)-1,3,4-oxadiazol-2-yl]-1,1-dioxo-2,3-dihydro-1λ6,5-benzothiazepin-4-one] returned an IC50 against DGKalpha of 1.81 µM. In the assay with primary human T-cells, the Emax was 78% and the EC50 came out at 2.75 µM. The IC50 against DGKzeta is 1.52 µM.

For `CC(C)(c1nnc(-c2ccc3c(c2)N(Cc2ccc(-c4ccc(C#N)cc4)cc2)C(=O)[C@@H](N)CS3(=O)=O)o1)S(C)(=O)=O` [Example 20, 4-[4-[[(3R)-3-amino-7-[5-(1-methyl-1-methylsulfonyl-ethyl)-1,3,4-oxadiazol-2-yl]-1,1,4-trioxo-2,3-dihydro-1λ6,5-benzothiazepin-5-yl]methyl]phenyl]benzonitrile], the IC50 at DGKalpha was found to be 1.38 µM; against DGKzeta it was 1.45 µM. Besides, the Emax in the assay with primary human T-cells was determined as 85%. The EC50 with primary human T-cells is 4.01 µM.

The compound `COc1ccc(-c2ccc(CN3C(=O)[C@@H](N)CS(=O)(=O)c4ccc(-c5nnc(C(C)(C)S(C)(=O)=O)o5)cc43)cc2)cc1` [Example 21, (3R)-3-amino-5-[[4-(4-methoxyphenyl)phenyl]methyl]-7-[5-(1-methyl-1-methylsulfonyl-ethyl)-1,3,4-oxadiazol-2-yl]-1,1-dioxo-2,3-dihydro-1λ6,5-benzothiazepin-4-one] gave an IC50 on DGKalpha of 1.27 µM. Further, in the assay with primary human T-cells, the Emax turned out to be 115% and the EC50 is 1.13 µM. The compound further returned an IC50 on DGKzeta of 1.08 µM.

(Values after patent US20260035364A1, “BICYCLIC TETRAHYDROTHIAZEPINE DERIVATIVES” (Hoffmann-La Roche Inc., priority 2022, published 2026).)
